The values below come from US12492215B2, “Pyrrolotriazine compounds acting as MNK inhibitor” (JUMBO DRUG BANK CO., LTD., priority 2019, dated 2025).

pIC50: −log10 of the molar value. Counter-ions that a name gives are not always drawn.

One data set concerns the target MNK1 (h) protein kinase (Homo sapiens (Human), UniProt Q9BUB5). As to the kind of experiment: Inhibitory activity against MNK1 protein kinase (Kinase HotSpot Profiling, 33P-ATP). It counts as biochemical. The following applies: 120 min room temperature. Here is the method: 2. In Vitro Evaluation of Inhibitory Activity of Compound Disclosed Herein Against MNK1 Protein Kinase
Purpose of experiment: to test the inhibitory activity of the compound against MNK1 protein kinase
Experimental materials: assay buffer: 20 mM 4-hydroxyethylpiperazine ethanesulfonic acid (pH 7.5), 10 mM magnesium chloride, 1 mM ethylene glycol-bis-(2-aminoethylether)-N,N,N′,N′-tetraacetic acid, 0.02% polyoxyethylene lauryl ether, 0.02 mg/mL bovine serum albumin, 0.1 mM sodium vanadate, 2 mM dithiothreitol, and 1% DMSO.
Experimental operation: Mnk1 protein kinase inhibitory activity assays were performed using the Kinase HotSpot Profiling service from Reaction Biology Corp. The substrate was added to a freshly prepared buffer, followed by addition of MNK1 (h). The mixture was stirred homogeneously. Serially diluted DMSO solution containing the compounds to be tested (3-fold serial dilution, starting from 3 μM) was added by using Echo550, and then ^33P-ATP (final intensity of radioactivity: 0.01 μCi/μl) was added to initiate the reaction. The mixture was pre-incubated at room temperature for 120 min. […] The concentration of the radioactive phosphorylated substrate remaining on the filter paper was measured.
The protein kinase inhibitory activity of the compound was expressed as a percentage of the residual protein kinase activity relative to the blank substrate (DMSO alone). […]

Data set [1] is described as follows: Pharmacokinetic evaluation in mice. In kind it is in vivo, CD-1 mice. The note with it: male, CD-1, mouse, plasma. Here is the method:
4. Pharmacokinetic Evaluation of Compounds Disclosed Herein
Purpose of experiment: to test pharmacokinetic parameters of the compounds in CD-1 mice
Experimental materials: CD-1 mice (Male, 7-9 weeks age, Shanghai Sippe-Bk Lab Animal Co., Ltd.)
Experimental operation: pharmacokinetic characteristics of the compounds after intravenous injection and oral administration for the rodent were tested by a standard scheme, and the candidate compounds were each formulated into a clear solution or a uniform suspension in the experiments and intravenously administered and intragastrically administered once to a mouse. The vehicle for the intravenous injection and oral administration was […] hydroxypropyl-β-cyclodextrin aqueous solution or normal saline solution. […] Two mice were subjected to intravenous injection at a dose of 0.5 mg/kg, and plasma samples were collected at 0 h (before administration) and 0.083, 0.25, 0.5, 1, 2, 4, 8, 12 and 24 h (after administration); the other two mice were subjected to intragastric administration at a dose of 2 mg/kg, and plasma samples were collected at 0 h (before administration) and 0.25, 0.5, 1, 2, 4, 8, 12 and 24 h (after administration). Whole blood samples within 24 h were collected and each centrifuged at 3000 g for 10 min. The supernatant was separated to obtain plasma sample, and acetonitrile solution containing internal standard whose volume is […] that of the plasma sample was added to precipitate the protein. The mixture was vortexed at 800 rpm for 10 min, and then 1 μL of supernatant was taken for injection. Plasma concentrations were quantitatively analyzed by LC-MS/MS method, and pharmacokinetic parameters, such as peak concentration (Cmax), clearance (CL), half-life (T1/2), tissue distribution (Vdss), area under the plasma drug concentration-time curve (AUC0-last) and bioavailability (F), were calculated.

The target in another data set is MNK2 (h) protein kinase (Homo sapiens (Human), UniProt Q9HBH9). The experiment in a line: Inhibitory activity against MNK2 protein kinase (KinaseProfiler, 33P-ATP filter-binding). It counts as biochemical. The note with it: myelin basic protein substrate, 40 min room temperature. Here is the method: 1. In Vitro Evaluation of Inhibitory Activity of Compounds Disclosed Herein Against MNK2 Protein Kinase
Sequence of MNK2 (h) protein kinase (Q9HBH9 whole entry): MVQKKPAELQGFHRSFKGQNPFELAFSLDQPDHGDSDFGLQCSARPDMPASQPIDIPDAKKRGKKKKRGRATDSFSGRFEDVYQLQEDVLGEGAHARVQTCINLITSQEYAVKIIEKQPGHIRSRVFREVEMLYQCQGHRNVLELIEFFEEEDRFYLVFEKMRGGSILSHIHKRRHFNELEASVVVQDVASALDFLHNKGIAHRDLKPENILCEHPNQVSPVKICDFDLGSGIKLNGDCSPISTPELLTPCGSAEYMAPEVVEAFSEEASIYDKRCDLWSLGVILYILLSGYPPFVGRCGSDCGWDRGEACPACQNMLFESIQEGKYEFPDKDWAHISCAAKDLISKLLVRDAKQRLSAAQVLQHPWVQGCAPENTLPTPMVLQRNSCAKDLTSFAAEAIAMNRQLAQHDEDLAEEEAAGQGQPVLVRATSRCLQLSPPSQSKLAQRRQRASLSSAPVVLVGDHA
Purpose of experiment: to test the inhibitory activity of the compounds against MNK2 protein kinase
Experimental materials: assay buffer: 8 mM 3-(N-morpholino)propanesulfonic acid, 0.2 mM disodium ethylenediaminetetraacetate, 0.01% polyoxyethylene lauryl ether, 5% glycerol, 0.1% β-mercaptoethanol and 1 mg of bovine serum albumin
Experimental operation: Mnk2 protein kinase inhibitory activity assays were performed using the KinaseProfiler™ service from Eurofins Pharma Discovery Services UK Limited. Serially diluted DMSO solutions containing the compounds to be tested (3-fold serial dilution, starting from 10 μM), MNK2 (h) protein kinase and 0.33 mg/mL myelin basic protein were added to a freshly prepared buffer (pH 7.0), and then stirred homogeneously. The reaction was initiated by adding a mixture of ^33P-ATP (intensity of radioactivity: 10 μCi/μL) and 10 mM magnesium acetate. After the resulting mixture was reacted at room temperature for 40 min, the reaction was terminated by adding phosphoric acid to dilute to a concentration of 0.5%. 10 μL of the reaction solution was filtered using a P30 filtermat, and then the filtermat was washed four times with 0.425% phosphoric acid for 4 min each, followed by washing once with methanol. After drying, the intensity of radioactivity was determined using the Filter-Binding method.
The protein kinase inhibitory activity of the compounds was expressed as a percentage of the residual protein kinase activity relative to the blank substrate (DMSO alone). The Prism4 software package (GraphPad) was used to calculate IC50 values and fit curves.

The subject of data set [2] is eIF4E phosphorylation of HCT116 cell strain. The experiment in a line: Inhibition of eIF4E phosphorylation in HCT116 cell strain (AlphaLISA p-eIF4E Ser209). In kind it is cell-based. The note with it: Homo sapiens, HCT-116; HCT116 cells, 3 h incubation. An excerpt: 3. In Vitro Evaluation of Inhibitory Activity of Compounds Disclosed Herein Against eIF4E Phosphorylation Purpose of experiment: to test the inhibition (IC50) of the compounds against eIF4E phosphorylation of HCT116 cell strain. Experimental materials: HCT116 cells (ATCC), RPM11640 medium (Life technology), fetal bovine serum (Hyclone), double antibodies (penicillin, streptomycin) (Millipore), phosphate buffer (Corning), 384-well cell plate (PerkinElmer), and AlphaLISA® SureFire® Ultra™ p-eIF4E (Ser209) Assay Kit (PerkinElmer). Experimental operation: HCT116 cells were digested to make a cell suspension, which was then plated in a 96-well plate. The cell plate was then placed in an incubator for overnight incubation. Compounds were diluted to corresponding concentrations and added to the cell plate, and the resulting mixture was incubated for 3 h. The cells were subsequently lysed with a lysis buffer, and the lysate was transferred to a 384-well plate. A mixed receptor was freshly prepared according to the kit instructions and added to the 384-well plate, and the mixture was incubated at room temperature for 1 h. Then a mixed donor was freshly prepared according to the kit instructions and added to the 384-well plate, and the resulting mixture was incubated at room temperature for 1 h. The signals were read on EnVision using the standard AlphaLISA program, curves were fitted using Graphpad prism, and the IC50 values were calculated.
A general note: Bead proximity is the source of the signal in Alpha formats.

In data set [3] the test system is CT-26 mouse colon cancer graft tumor. The experiment in a line: In vivo efficacy in CT-26 mouse graft tumor. Set-up: species or system mice. The following applies: QD, 21-day treatment, CT-26 graft tumor. Here is the method:
5. In Vivo Efficacy Experiment of Compound Disclosed Herein for CT-26 Mouse Graft Tumor
Purpose of experiment: to determine in vivo efficacy of compound for CT-26 mouse graft tumor
Experimental materials: CT-26 cells, RMPI-1640 medium containing 10% fetal bovine serum, and mice (female, Shanghai Sippe-Bk Lab Animal Co., Ltd.)
Experimental operation: CT-26 cells were cultured in RMPI-1640 medium containing 10% fetal bovine serum in an incubator at 37° C./5% CO2. Tumor cells were subcultured, and after an appropriate concentration was reached and the tumor cells were in the logarithmic growth phase, the tumor cells were collected, counted and then resuspended in DPBS (phosphate buffered solution), and the concentration of the cell suspension was adjusted to 3×10^6/mL for inoculation.
Establishment of mouse colon cancer graft tumor: cells were collected and adjusted to a concentration of 3×10^6 cells/mL (resuspended in DPBS to obtain cell suspension), and 0.1 mL of tumor cells was injected subcutaneously at the right dorsal side of the mice under sterile conditions, and 3×10^5 cells were inoculated for each mouse. After the tumor grew to a certain size, the length (a) and the width (b) of the tumor was measured by using a digital vernier caliper, and the tumor volume (TV) was calculated, wherein the calculation formula is as follows: TV=a×b^2/2.
CT-26 tumor cell inoculation: on the day of inoculation, animals were grouped (8 animals for each) according to the body weight and subjected to drug administration separately, and the day of inoculation was considered as D0. When the tumor size reached about 60 mm^3, the animals in the antibody groups were grouped according to the tumor size and the body weight. The body weight and tumor size of the animals were measured three times a week during the experiment, while clinical symptoms of the animals were observed and recorded daily, and for each administration, reference was made to the animal body weight measured most recently. The inhibitory effect of the compound on colon cancer graft tumor in mice was determined after 21-day treatment at a dose of 30 mg/Kg QD (once daily), 90 mg/Kg QD (once daily) and 200 mg/Kg QD (once daily), and the specific information is shown in Table 5 below.
The calculation formula of T/C (%) is as follows: T/C (%)=(TRTV/CRTV)×100%. TRTV is the relative tumor volume of the treatment group, and CRTV is the relative tumor volume of the negative control group; TGI (%)^a=(1−average tumor volume at the end of administration of a treatment group/average tumor volume at the end of treatment of the vehicle control group)×100%.

For data set [4] the following is noted: background statement; cited from earlier work.
The subject of data set [5] is expression of PD-1, LAG3 and IL-10. The following applies: background statement; cited from earlier work.

Sequence of MNK1 (h) protein kinase (Q9BUB5 whole entry): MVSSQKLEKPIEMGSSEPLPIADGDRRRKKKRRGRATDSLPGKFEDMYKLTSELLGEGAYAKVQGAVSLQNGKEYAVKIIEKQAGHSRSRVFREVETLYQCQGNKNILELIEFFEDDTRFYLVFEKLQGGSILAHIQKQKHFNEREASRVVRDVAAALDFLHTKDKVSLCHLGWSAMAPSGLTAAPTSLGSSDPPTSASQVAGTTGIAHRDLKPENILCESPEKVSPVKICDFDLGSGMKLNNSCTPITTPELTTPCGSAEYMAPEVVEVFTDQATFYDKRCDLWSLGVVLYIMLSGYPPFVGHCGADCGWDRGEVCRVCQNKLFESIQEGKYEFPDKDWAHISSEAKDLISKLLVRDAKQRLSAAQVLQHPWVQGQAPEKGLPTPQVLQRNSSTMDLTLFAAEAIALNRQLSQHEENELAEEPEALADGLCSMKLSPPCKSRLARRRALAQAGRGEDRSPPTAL

By IC50 is commonly meant the point on the concentration scale where inhibition reaches its midpoint. A higher IC50 goes with weaker potency in that assay. For orientation: bioavailability means the share of a dose that reaches the circulation, judged against a reference dose that is usually intravenous. Broadly, the clearance is a measure of how efficiently the substance is removed, as volume per time. A word on the pIC50: it is the negative decadic logarithm of the IC50, by convention in mol/L. Read a low pIC50 as a high IC50. Regarding `Cc1cc(Nc2ncnn3cc(OCCN4CCCC4)c(C)c23)c(=O)n2c1C(=O)NC21CCCCC1` [Compound 1 (hydrochloride)], the IC50 turned out to be 54.6 nM against MNK1 (h) protein kinase and 22 nM on MNK2 (h) protein kinase. The bioavailability in data set [1] (PO 2 mg/kg vs IV 0.5 mg/kg, read-out: Bioavailability F) came to 32.5%. Further, the AUC(0-t) in data set [1] (PO 2 mg/kg, read-out: Area under the plasma drug concentration-time curve AUC0-last PO) was found to be 956 nM·h. Moreover, in data set [1] (intragastric 2 mg/kg, intravenous 0.5 mg/kg (route of Cmax not given), read-out: Peak concentration Cmax), the Cmax came out at 0.0359 µM. Besides, the clearance in data set [1] (intravenous injection 0.5 mg/kg, read-out: Clearance CL) was found to be 2 L/h/kg. The Vd in data set [1] (intravenous injection 0.5 mg/kg, read-out: Tissue distribution Vdss) came out at 14.1 L/kg. Also, the pIC50 in data set [2] was 8.46.
`Cc1cc(Nc2ncnn3cc(OCCN4CCC(F)(F)C4)c(C)c23)c(=O)n2c1C(=O)NC21CCCC1` [Compound 12]: the T/C % in data set [3] (30 mg/Kg) came out at 36.43%; in data set [3] (90 mg/Kg), 31.11%; in data set [3] (200 mg/Kg), 33.31%. Moreover, the TGI % in data set [3] (30 mg/Kg) was determined as 63.57%; in data set [3] (90 mg/Kg), 68.89%; in data set [3] (200 mg/Kg), 68.51%. Further, the negative-log IC50 (pIC50) in data set [2] is 8.07.
In the case of `Cc1cc(Nc2cc(N)ncn2)c(=O)n2c1C(=O)NC21CCCCC1` [eFT508], in data set [4], the “safety in phase I clinical trial” value is reported as “good safety”. The “effect on expression of PD-1, LAG3 and IL-10” value in data set [5] is “selectively inhibit the expression of PD-1, LAG3 and IL-10”.
